In patent publication US12514928B2, “Herboxidiene antibody-drug conjugates and methods of use” (Eisai R&D Management Co., Ltd., priority 2018, dated 2026):
Where two headings read alike, the source gives them in different places.

Tests used:
THP1.1 = assay: Herboxidiene splicing modulator cell potency, CTGlo-ATS, THP1.1, 72 h; assay type: cell-based
[1] = Caco-2 permeability of ADC payload; assay type: in vitro ADME; conditions: human; for Papp A→B at 2 h, 10 μM: apical to basolateral, read-out: Permeability Mean Caco-2 A-B Perm
Method: 3.5.2 Caco-2 Permeability of ADC Payload
Caco-2 cells were cultured for 21 days in transwell 24-well plates at 37° C., 95% humidity, 5% CO2. Integrity of cell monolayer was confirmed by TEER (transepithelial electrical resistance) and Lucifer yellow. Payloads were spiked in duplicate at 10 μM, separately, on both sides of the cell monolayer. Permeability rates from the apical to basolateral (A-B) direction and the basolateral to apical (B-A) direction were determined by sampling aliquots from both chambers immediately after treatment (t=0) and following incubation for 2 hours. Samples were protein precipitated with organic solvent containing internal standard and analyzed by LC-MS/MS (SCI EX; API 5500). The area ratio responses of payload/internal standard over time in both directions were used to generate permeability (cm/sec) values. Efflux ratio was calculated by dividing B-A/A-B. Control compounds for low and high permeability and efflux behaved as expected.

Ad2.1 = assay: In vitro splicing (IVS) assay, qPCR-IVS-ATS, Ad2.1 substrate, HELA.2; assay type: biochemical; conditions: payload, read-out: qPCR-IVS-ATS GMean IC50 (nM) Ad2.1 HELA.2
SF3b complex = SF3b complex (Homo sapiens, UniProt O75533+Q7RTV0); assay: Payload binding to the SF3b complex (SF3B1 binding); conditions: SF3B1 (WT), HELA.2, read-out: SPA-ATS GMean IC50 (nM) SF3B1 (WT) HELA.2
Method: Exemplary herboxidiene spliceosome modulator payloads used in the preparation of ADCs were profiled. Payloads were evaluated for binding to the SF3b complex, in vitro splicing activity, and ability to inhibit cell growth.

Ad2.2 pre-mRNA = assay: In vitro splicing (IVS) assay with HeLa nuclear extract, RT-qPCR of spliced product; assay type: biochemical; conditions: payload, HELA.2, read-out: qPCR-IVS-ATS GMean IC50 (nM) Ad2.2 HELA.2
Method: 2.1 In Vitro Splicing (IVS)
To evaluate payload activity in a cell-free system, an in vitro splicing assay was performed. The payloads were incubated with nuclear extracts and pre-mRNA substrate minigenes.
HeLa nuclear extract preparation: HeLa S3 cell pellets were resuspended in hypotonic buffer (10 mM HEPES pH 7.9, 1.5 mM MgCl2, 10 mM KCl, 0.2 mM PMSF, 0.5 mM DTT) and the suspension was brought up to a total of 5 packed cell volume (PCV). After centrifugation, the supernatant was discarded, and the cells were brought up to 3 PCV with hypotonic buffer and incubated on ice for 10 min. Cells were lysed using a dounce homogenizer and then centrifuged. The supernatant was discarded, and the pellet was resuspended with […] packed nuclear volume (PNV) of low salt buffer (20 mM HEPES pH 7.9, 1.5 mM MgCl2, 20 mM KCl, 0.2 mM EDTA, 25% glycerol, 0.2 mM PMSF, 0.5 mM DTT), followed by 1/2 PNV of high salt buffer (same as low salt buffer except 1.4 M KCl). The nuclei were gently mixed for 30 min before centrifuging. The supernatant (nuclear extract) was then dialyzed into storage buffer (20 mM HEPES pH 7.9, 100 mM KCl, 0.2 mM EDTA, 20% glycerol, 0.2 mM PMSF, 0.5 mM DTT). Protein concentration was determined using NanoDrop 8000 UV-Vis spectrophotometer (ThermoFisher Scientific).
IVS: All Ad2-derived sequences (Pellizzoni et al. (1998) Cell 95(5):615-24) were cloned into pcDNA3.1(+) vector (Promega) using 5′ EcoRI and 3′ Xbal restriction sites. The plasmids were linearized using Xbal and used as DNA templates in in vitro transcription reactions. The FtzΔi intron-less plasmid (Luo and Reed (1999) 96(26):14937-42) was linearized using EcoRI. All RNAs were in vitro transcribed and then purified using MEGAScript T7 (Invitrogen) and MegaClear (Invitrogen) kits, respectively. For splicing reactions using Ad2 variant pre-mRNAs, […] were prepared using 8 μg nuclear extracts prepared from HeLa S3, 2 ng pre-mRNA, 0.2 ng FTZΔi, and varying concentrations of compounds or DMSO. After a 15 min pre-incubation at 30° C., 1 μL splicing activation buffer (0.5 mM ATP, 20 mM creatine phosphate, 1.6 mM MgCl2) was added, and the reactions were incubated for 90 min at 30° C. The reactions were then quenched with 13 μL DMSO, and 25 nL was used for RT-qPCR. RT-qPCR reactions were prepared using TaqMan RNA-to-CT 1-step kit (Life Technologies), RNA from splicing reactions, Ad2 (forward: […]; reverse: […]; probe: CTGTTGGGCTCGCGGTTG) and Ftz (forward: […]; reverse: […]; probe: […]) mRNA primer-probe sets. Prism 7 (Graphpad) was used for non-linear regression curve fitting of the formed spliced product and normalized to the control (DMSO) sample.

[2] = Chemical stability of ADC payload in Mcilvane buffer pH 5.5; assay type: physicochemical; conditions: payload 20 μM, pH 5.5, 37° C.
Method: 3.5.3 Chemical Stability of ADC Payload
Herboxidiene splicing modulators were incubated in Mcilvane (Citrate-Phosphate) buffer, pH 5.5 (Boston Bioproducts; #BB-2466) at a final concentration of 20 μM (less than 0.5% DMSO from stock solution). The herboxidiene splicing modulator solution and the internal standard were pipetted into 96-well plates, ran on UPLC (Waters Acquity H class), and analyzed for initial chromatographic signal (t=0). The column was a Waters UPLC HSS T3 1.8 μm 2.1×50 mm column (#186003538). A gradient of mobile phase A from 95% to 10% was employed over 1 min, where A was 0.1% formic acid in water and mobile phase B was 0.1% formic acid in acetonitrile (flow rate 0.9 mL/min). The remainder of the herboxidiene splicing modulator solution was kept in a plate shaker at 37° C. (Eppendorf ThermoMixer). Sample analyses by UPLC were repeated at 24, 72, and 96 hours post-incubation at 37° C. The area ratio response of the herboxidiene splicing modulator and internal standard was determined for three time points: time 0, day 1, and either day 3 or day 4. Time 0 was set to 100. The area ratio responses of the later time points were compared to time 0. Percent remaining was calculated as follows: (Area Ratio day X/Area Ratio time 0)*100=% remaining. The slope of the line was calculated in Excel comparing the log of % remaining and time point.

NCIH1650.1 = assay: Herboxidiene splicing modulator cell potency, CTGlo-ATS, NCIH1650.1, 72 h; assay type: cell-based
[3] = read-out: CTGIo-ATS GMean GI50 (nM) 72 h THP1.1
[4] = read-out: CTGIo-ATS GMean GI50 (nM) 72 h NCIH1650.1

## CO[C@H]([C@@H](C)[C@H]1O[C@]1(C)C[C@H](C)/C=C/C=C(\C)[C@H]1O[C@@H](CNC(=O)CCCCCOC(=O)N2CCNCC2)CC[C@@H]1C)[C@@H](C)O [Compound H5, 6-((((2R,5S,6S)-6-((S,2E,4E)-7-((2R,3R)-3-((2R,3R,4R)-4-hydroxy-3-methoxypentan-2-yl)-2-methyloxiran-2-yl)-6-methylhepta-2,4-dien-2-yl)-5-methyltetrahydro-2H-pyran-2-yl)methyl)amino)-6-oxohexyl piperazine-1-carboxylate]
THP1.1; payload
  CTGIo-ATS GMean LD50 (nM) 72 h THP1.1: 3.415 nM
  CTGIo-ATS Mean MinResponse % 72 h THP1.1: −103.352%
THP1.1; [3]
  GI50: 0.433 nM
[1]; efflux ratio, B-A/A-B, read-out: ER
  efflux ratio at 2 h, 10 μM: 22.7
[1]; payload at 10 μM, 2 hours
  Papp A→B at 2 h, 10 μM: 1.04 ×10⁻⁶ cm/s
[1]; payload at 10 μM, 2 hours, head incomplete (column between A-B and ER)
  Papp B→A at 2 h, 10 μM: 23.6 ×10⁻⁶ cm/s
Ad2.1
  IC50: 30.3 nM
SF3b complex
  IC50: 12.9 nM
Ad2.2 pre-mRNA
  IC50: 17.8 nM
[2]; McIlvaine (citrate-phosphate) buffer, read-out: Stability Mean Stability t½ pH 5.5 (converted)
  half-life at 20 μM: > 168 h
[2]; % remaining at 24 h
  Stability Mean Stability % pH 5.5 t 24 h: >100%
NCIH1650.1; payload
  CTGIo-ATS GMean LD50 (nM) 72 h NCIH1650.1: >10000 nM
  CTGIo-ATS Mean MinResponse % 72 h NCIH1650.1: −25.308%
NCIH1650.1; [4]
  GI50: 0.407 nM

## CO[C@H]([C@@H](C)[C@H]1O[C@]1(C)C[C@H](C)/C=C/C=C(\C)[C@H]1O[C@@H](CC(=O)N[C@@H](CCCOC(=O)N2CCNCC2)C(=O)O)CC[C@@H]1C)[C@@H](C)O [Compound H4, (S)-2-(2-((2R,5S,6S)-6-((S,2E,4E)-7-((2R,3R)-3-((2R,3R,4R)-4-hydroxy-3-methoxypentan-2-yl)-2-methyloxiran-2-yl)-6-methylhepta-2,4-dien-2-yl)-5-methyltetrahydro-2H-pyran-2-yl)acetamido)-5-((piperazine-1-carbonyl)oxy)pentanoic acid]
THP1.1; payload
  CTGIo-ATS GMean LD50 (nM) 72 h THP1.1: 5337.399 nM
  CTGIo-ATS Mean MinResponse % 72 h THP1.1: −40.902%
THP1.1; [3]
  GI50: 649 nM
[1]; payload at 10 μM, 2 hours
  Papp A→B at 2 h, 10 μM: 19.3 ×10⁻⁶ cm/s
Ad2.1
  IC50: 31.6 nM
SF3b complex
  IC50: 14.5 nM
Ad2.2 pre-mRNA
  IC50: 29.6 nM
NCIH1650.1; payload
  CTGIo-ATS GMean LD50 (nM) 72 h NCIH1650.1: 2575.18 nM
  CTGIo-ATS Mean MinResponse % 72 h NCIH1650.1: 728.583%
NCIH1650.1; [4]
  GI50: 464 nM

## CO[C@H]([C@@H](C)[C@H]1O[C@]1(C)C[C@H](C)/C=C/C=C(\C)[C@H]1O[C@@H](CNC(=O)CCCCCOC(=O)N2CCCNCC2)CC[C@@H]1C)[C@@H](C)O [Compound H6, 6-((((2R,5S,6S)-6-((S,2E,4E)-7-((2R,3R)-3-((2R,3R,4R)-4-hydroxy-3-methoxypentan-2-yl)-2-methyloxiran-2-yl)-6-methylhepta-2,4-dien-2-yl)-5-methyltetrahydro-2H-pyran-2-yl)methyl)amino)-6-oxohexyl 1,4-diazepane-1-carboxylate]
THP1.1; payload
  CTGIo-ATS GMean LD50 (nM) 72 h THP1.1: 6.522 nM
  CTGIo-ATS Mean MinResponse % 72 h THP1.1: −101.275%
THP1.1; [3]
  GI50: 0.701 nM
[1]; payload at 10 μM, 2 hours
  Papp A→B at 2 h, 10 μM: 5.72 ×10⁻⁶ cm/s
Ad2.1
  IC50: 9.51 nM
Ad2.2 pre-mRNA
  IC50: 7.19 nM
NCIH1650.1; payload
  CTGIo-ATS GMean LD50 (nM) 72 h NCIH1650.1: 1.336 nM
  CTGIo-ATS Mean MinResponse % 72 h NCIH1650.1: 0.978%
NCIH1650.1; [4]
  GI50: 0.219 nM

## CO[C@H]([C@@H](C)[C@H]1O[C@]1(C)C[C@H](C)/C=C/C=C(\C)[C@H]1O[C@@H](CNC(=O)CCOCCOC(=O)N2CCCNCC2)CC[C@@H]1C)[C@@H](C)O [Compound H9, 2-(3-((((2R,5S,6S)-6-((S,2E,4E)-7-((2R,3R)-3-((2R,3R,4R)-4-hydroxy-3-methoxypentan-2-yl)-2-methyloxiran-2-yl)-6-methylhepta-2,4-dien-2-yl)-5-methyltetrahydro-2H-pyran-2-yl)methyl)amino)-3-oxopropoxy)ethyl 1,4-diazepane-1-carboxylate]
THP1.1; payload
  CTGIo-ATS GMean LD50 (nM) 72 h THP1.1: 14.441 nM
  CTGIo-ATS Mean MinResponse % 72 h THP1.1: −101.645%
THP1.1; [3]
  GI50: 1.34 nM
[1]; payload at 10 μM, 2 hours
  Papp A→B at 2 h, 10 μM: 11.6 ×10⁻⁶ cm/s
Ad2.1
  IC50: 9.68 nM
Ad2.2 pre-mRNA
  IC50: 8.66 nM
NCIH1650.1; payload
  CTGIo-ATS GMean LD50 (nM) 72 h NCIH1650.1: 2.681 nM
  CTGIo-ATS Mean MinResponse % 72 h NCIH1650.1: 2.327%
NCIH1650.1; [4]
  GI50: 0.481 nM

## CNC1CCN(C(=O)OCCOCCC(=O)NC[C@H]2CC[C@H](C)[C@@H](/C(C)=C/C=C/[C@@H](C)C[C@@]3(C)O[C@@H]3[C@H](C)[C@@H](OC)[C@@H](C)O)O2)C1 (stereo partly drawn) [Compound H10, 2-(3-((((2R,5S,6S)-6-((S,2E,4E)-7-((2R,3R)-3-((2R,3R,4R)-4-hydroxy-3-methoxypentan-2-yl)-2-methyloxiran-2-yl)-6-methylhepta-2,4-dien-2-yl)-5-methyltetrahydro-2H-pyran-2-yl)methyl)amino)-3-oxopropoxy)ethyl 3-(methylamino)pyrrolidine-1-carboxylate]
THP1.1; payload
  CTGIo-ATS GMean LD50 (nM) 72 h THP1.1: 21.021 nM
  CTGIo-ATS Mean MinResponse % 72 h THP1.1: −98.789%
THP1.1; payload, THP1.1, read-out: CTGIo-ATS GMean GI50 (nM) 72 h THP1.1
  GI50: 2.06 nM
Ad2.1
  IC50: 21.7 nM
Ad2.2 pre-mRNA
  IC50: 16.5 nM
NCIH1650.1; payload
  CTGIo-ATS GMean LD50 (nM) 72 h NCIH1650.1: >10000 nM
  CTGIo-ATS Mean MinResponse % 72 h NCIH1650.1: 9.194%
NCIH1650.1; payload, NCIH1650.1, read-out: CTGIo-ATS GMean GI50 (nM) 72 h NCIH1650.1
  GI50: 3.04 nM
